{"source": "patent US8633324B2", "about": "“Denibulin di-hydrochloride” (Medicinova, Inc., priority 2011, dated 2014)", "assay_type_in_all_cases": "physicochemical", "key": {"[1]": {"test": "Evaluation of other salt forms as active pharmaceutical ingredient", "conditions": "reasons including instability, hygroscopicity and deliquescence even at moderate humidity", "method": "The advantageous nature of the physicochemical properties of the di-hydrochloride salt of MN-029 seems to be borne out, not just in comparison with the mono-hydrochloride salt but also with three other salts that were prepared to determine each salt's potential to be an active pharmaceutical ingredient. These other salt forms were the mesylate, malonate and sulfate salts of denibulin. Each was deemed unsuitable for use in pharmaceutical formulations because of one or more reasons, including instability, hygroscopicity and deliquescence even at moderate humidity."}, "[2]": {"test": "Log P, Log Pion, Log D by potentiometric titration (Sirius GlpKa, octanol:water)", "conditions": "octanol:ionic-strength adjusted water", "source_text": "Most drugs have an ideal log P value and any deviation from this idealized value results in reduced absorption, slow transport of drug to the site of action and consequently, a decrease in biological activity. Table 8, illustrates the predicted and measured values for partition coefficients of MN-029 di-hydrochloride. The data was collected by potentiometric titration using a Sirius GlpKa instrument using three ratios of octanol:ionic-strength adjusted water to generate Log P, Log Pion and Log D values and the raw data was analyzed using Refinement Pro Software V.1.0. The predicted value of Log P was obtained using ACD V. software and Syracuse KOWWIN V.1.67 softwares."}, "[3]": {"test": "Aqueous solubility, 24 hours equilibration in water at 25° C., HPLC, pH and XRPD of residue", "conditions": "for XRPD of solid residue: residue after 24 hours equilibration in water at 25° C.", "method": "Briefly, quantitative high performance liquid chromatography (HPLC) was used to determine the aqueous solubility. X-ray powder diffraction spectrometry was also used to characterize the thermodynamic solubility of the mono-hydrochloride and di-hydrochloride salts of MN-029. After a 24 hours equilibration of each salt form in water at 25° C., the residual solid material was separated from the aqueous solution and the pH of the aqueous sample was measured. The XRPD spectrum of the solid residue obtained from the MN-029 di-hydrochloride vial indicated the solid material to be the mono-hydrochloride salt of MN-029. […] Table 4 illustrates the data from aqueous solubility studies of the mono-hydrochloride and di-hydrochloride salts of MN-029.\nThe suspension was equilibrated at 25° C. for 24 hours then pH was measured. The suspension was filtered and the filtrate was diluted by a factor of 101. Quantization by HPLC with a reference to a standard solution. Different volumes of the standard, diluted, and undiluted solution were injected and solubility was calculated by integration of the peak found at the same time as the principle peak in the standard solution."}, "[4]": {"test": "Gravimetric Vapor Sorption (GVS) hygroscopicity", "conditions": "for Weight change: GVS", "source_text": "Moreover, neither the mono-hydrochloride salt or the di-hydrochloride salt of MN-029 show any significant change in phase as measured by XRPD analysis of samples subjected to GVS analysis (see FIG. 6)."}, "[5]": {"test": "pKa, predicted (ACD) versus measured (Sirius GlpKa)", "source_text": "MN-029 has a primary, secondary and tertiary amino group. The pKa's of these amino groups, therefore, should play a role in aqueous solubility, stability and pharmacokinetics. Accordingly, the present inventor compared the predicted pKa's of the alanyl and ring nitrogen atoms to their measured pKa values and unexpectedly found a significant difference between the measured and predicted pKa values for the benzimidazole nitrogen atoms. Thus, for the acidic >N—H group of imidazole, there is approximately a 6-fold difference between the predicted and measured pKa values as shown in Scheme 3. For the more basic ring nitrogen (—N═), however, the difference between observe red and predicted pKa values is 30-fold. That is, the measured value of basicity for the unprotonated ring nitrogen is much lower than the predicted value.\nPredicted pKa values were calculated using ACD pKa prediction software v. 9. Actual pKa values were collected on a Sirius GlpKa instrument with a D-PAS attachment. Measurements were made at 25° C. in aqueous solution by UV and in methanol water mixtures by potentiometry. The ionic-strength of the titration media was adjusted with 0.15 M aqueous KCl. The values found in methanol water mixtures were corrected to 0% co-solvent via a Yashuda-Shedlovsky extrapolation. The data were refined using Refinement Pro software v. 1.0. No difference in pKa between the tautomers of MN-029 di-hydrochloride were detected experimentally or theoretically."}, "[6]": {"test": "Solubility as a function of pH in buffers without and with 15% HPBCD", "conditions": "for solubility at 5 days: thermodynamic from solid, read-out: MN-029 Solubility", "method": "Buffers were prepared to cover a pH range of 2 to 7. Approximately 5 to 10 milligrams of drug was weighed into an HPLC vial to which 1.00 mL of the appropriate buffer was added. The solutions were vortexed briefly and were then shaken for five days on an orbital shaker. The prolonged shaking was carried out because slow equilibration had been observed during the initial formulation studies with different salt forms of MN-029.\nBuffers with 15% HPBCD were prepared from the previous buffers. One and a half grams of HPBCD was weighed into each of several 10 mL volumetric flasks. HPBCD was dissolved in and diluted to volume with the appropriate buffer. 15 to 20 milligrams of MN-029 di-hydrochloride was weighed out into an tared HPLC vial. To the di-hydrochloride salt was added 1.00 mL of each buffer and the solution was vortexed briefly to dissolve the salt. The solutions were placed on an orbital shaker for five days. Solubility results are shown in Table 10, and the pH solubility profile for the drug in the absence of HPBCD is shown in FIG. 8."}, "[7]": {"conditions": "water, 25° C., equilibration for 24 hours"}}, "note": "Where two headings read alike, the source gives them in different places."}
{"molecule": "malonate", "values": [{"measurement": "suitability for use in pharmaceutical formulations", "setting": "[1]", "result": "unsuitable"}]}
{"molecule": "O=S(=O)(O)O", "note": "[sulfate]", "values": [{"measurement": "suitability for use in pharmaceutical formulations", "setting": "[1]", "result": "unsuitable"}]}
{"molecule": "COC(=O)Nc1nc2cc(Sc3ccc(NC(=O)[C@H](C)N)cc3)ccc2[nH]1.Cl", "note": "[MN-029 mono-hydrochloride, reference compound]", "values": [{"measurement": "Measured LogP", "setting": "[2]", "result": 2.64}, {"measurement": "Measured LogPion(cation)", "setting": "[2]", "result": 0.93}, {"measurement": "Measured LogD7.4", "setting": "[2]; pH 7.4", "result": 2.10}, {"measurement": "XRPD of solid residue", "setting": "[3]; listed as A063866", "result": "No significant difference"}, {"measurement": "XRPD of solid residue", "setting": "[3]; listed as MN-029*HCl", "result": "No significant"}, {"measurement": "Concentration of filtrate", "setting": "[3]; [7]", "result": "0.63 mg/ml of free base"}, {"measurement": "pH of saturated solution", "setting": "[3]; [7]", "result": 2.37}, {"measurement": "Weight change", "setting": "[4]; 0% RH to 40% RH", "result": "+1.04 % w/w"}, {"measurement": "Weight change", "setting": "[4]; 40% RH to 90% RH, listed as A063866", "result": "Reversible uptake of +2.12% w/w"}, {"measurement": "Weight change", "setting": "[4]; 40% RH to 90% RH, listed as MN029*HCl", "result": "+2.12 % w/w"}, {"measurement": "Weight change", "setting": "[4]; 90% RH to 0% RH", "result": "−3.39", "unit": "% w/w"}, {"measurement": "XRPD of residue after GVS", "setting": "[4]; sample subjected to GVS", "result": "No significant difference"}]}
{"molecule": "COC(=O)Nc1nc2ccc(Sc3ccc(NC(=O)[C@H](C)N)cc3)cc2[nH]1", "note": "[MN-029, carbamic acid N-[6-[[4-[[(2S)-2-amino-1-oxopropyl]amino]phenyl]thio]-1H-benzimidazol-2-yl]-methyl ester]", "values": [{"measurement": "difference between predicted and measured pKa values", "setting": "[5]; acidic >N—H group of imidazole", "result": "~6", "unit": "fold"}, {"measurement": "difference between predicted and measured pKa values", "setting": "[5]; alanyl amino group", "result": "no significant difference"}, {"measurement": "difference between observed and predicted pKa values", "setting": "[5]; more basic ring nitrogen (—N═)", "result": 30, "unit": "fold"}, {"measurement": "MN-029 Solubility", "setting": "[6]; Without HPBCD, buffer pH 2.0, final pH 2.10, five days shaking", "result": 6160, "unit": "µg/mL"}, {"measurement": "solubility at 5 days", "setting": "[6]; aqueous buffer with 15% HPBCD, pH 2, aqueous with cosolvent or surfactant or cyclodextrin, With 15% HPBCD, buffer pH 2.0, final pH 2.03", "result": "> 20900", "unit": "µg/mL"}, {"measurement": "solubility at 5 days", "setting": "[6]; aqueous buffer with 15% HPBCD, pH 3, aqueous with cosolvent or surfactant or cyclodextrin, With 15% HPBCD, buffer pH 3.0, final pH 3.11", "result": "> 24400", "unit": "µg/mL"}, {"measurement": "solubility at 5 days", "setting": "[6]; aqueous buffer with 15% HPBCD, pH 4, aqueous with cosolvent or surfactant or cyclodextrin, With 15% HPBCD, buffer pH 4.0, final pH 3.98", "result": "> 21500", "unit": "µg/mL"}, {"measurement": "solubility at 5 days", "setting": "[6]; aqueous buffer with 15% HPBCD, pH 5, aqueous with cosolvent or surfactant or cyclodextrin, With 15% HPBCD, buffer pH 5.0, final pH 5.24", "result": "> 23000", "unit": "µg/mL"}, {"measurement": "solubility at 5 days", "setting": "[6]; aqueous buffer with 15% HPBCD, pH 6, aqueous with cosolvent or surfactant or cyclodextrin, With 15% HPBCD, buffer pH 6.0, final pH 6.27", "result": "> 24300", "unit": "µg/mL"}, {"measurement": "solubility at 5 days", "setting": "[6]; aqueous buffer with 15% HPBCD, pH 7, aqueous with cosolvent or surfactant or cyclodextrin, With 15% HPBCD, buffer pH 7.0, final pH 6.90", "result": "> 22700", "unit": "µg/mL"}, {"measurement": "solubility at 5 days", "setting": "[6]; aqueous buffer, pH 3, aqueous buffer, Without HPBCD, buffer pH 3.0, final pH 3.35", "result": 290, "unit": "µg/mL"}, {"measurement": "solubility at 5 days", "setting": "[6]; aqueous buffer, pH 4, aqueous buffer, Without HPBCD, buffer pH 4.0, final pH 3.92", "result": 560, "unit": "µg/mL"}, {"measurement": "solubility at 5 days", "setting": "[6]; aqueous buffer, pH 5, aqueous buffer, Without HPBCD, buffer pH 5.0, final pH 4.93", "result": 150, "unit": "µg/mL"}, {"measurement": "solubility at 5 days", "setting": "[6]; aqueous buffer, pH 6, aqueous buffer, Without HPBCD, buffer pH 6.0, final pH 6.24", "result": 130, "unit": "µg/mL"}, {"measurement": "solubility at 5 days", "setting": "[6]; aqueous buffer, pH 7, aqueous buffer, Without HPBCD, buffer pH 7.0, final pH 6.96", "result": 26, "unit": "µg/mL"}]}
